In PubChem BioAssay AID1259407 (Chemical Carcinogenesis Research Information System (CCRIS), 2018):
Calls of active or inactive are those of the source. The rule behind the calls is not given here.

Tested on: CCRIS mutagenicity, Ames/micronucleus/aberration tests
Test: CCRIS mutagenicity studies
[1] = Test System: AMES SALMONELLA TYPHIMURIUM, Strain/Indicator: TA97A, Metabolic Activation: NONE, Method: STANDARD PLATE
[2] = Test System: AMES SALMONELLA TYPHIMURIUM, Strain/Indicator: TA98, Metabolic Activation: NONE, Method: STANDARD PLATE
[3] = Test System: AMES SALMONELLA TYPHIMURIUM, Strain/Indicator: TA98, Metabolic Activation: RAT, LIVER, S-9, AROCLOR 1254, Method: STANDARD PLATE
[4] = Test System: AMES SALMONELLA TYPHIMURIUM, Strain/Indicator: TA100, Metabolic Activation: NONE, Method: STANDARD PLATE
[5] = Test System: AMES SALMONELLA TYPHIMURIUM, Strain/Indicator: TA100, Metabolic Activation: RAT, LIVER, S-9, AROCLOR 1254, Method: STANDARD PLATE
[6] = Test System: AMES SALMONELLA TYPHIMURIUM, Strain/Indicator: TA102, Metabolic Activation: NONE, Method: STANDARD PLATE
[7] = Test System: AMES SALMONELLA TYPHIMURIUM, Strain/Indicator: TA100, Metabolic Activation: RAT, LIVER, S-9, PHENOBARBITAL, Method: STANDARD PLATE

Cn1cnc2c1c(=O)[nH]c(=O)n2C
mutagenic call [1]: inactive; negative
mutagenic call (Test System: AMES SALMONELLA TYPHIMURIUM, Strain/Indicator: TA97A, Metabolic Activation: RAT LIVER S-9, Method: STANDARD PLATE): inactive; negative
mutagenic call [2]: inactive; negative
mutagenic call [3]: inactive; negative
mutagenic call [4]: inactive; negative
mutagenic call (Test System: AMES SALMONELLA TYPHIMURIUM, Strain/Indicator: TA100, Metabolic Activation: RAT LIVER S-9, Method: STANDARD PLATE): inactive; negative
mutagenic call [5]: inactive; negative
mutagenic call [6]: inactive; negative
mutagenic call (Test System: AMES SALMONELLA TYPHIMURIUM, Strain/Indicator: TA102, Metabolic Activation: RAT LIVER S-9, Method: STANDARD PLATE): inactive; negative
mutagenic call (Test System: AMES SALMONELLA TYPHIMURIUM, Strain/Indicator: TA104, Metabolic Activation: NONE, Method: STANDARD PLATE): inactive; negative
mutagenic call (Test System: AMES SALMONELLA TYPHIMURIUM, Strain/Indicator: TA104, Metabolic Activation: RAT LIVER S-9, Method: STANDARD PLATE): inactive; negative
mutagenic call (Test System: AMES SALMONELLA TYPHIMURIUM, Strain/Indicator: TA1535, Metabolic Activation: NONE, Method: STANDARD PLATE): inactive; negative
mutagenic call (Test System: AMES SALMONELLA TYPHIMURIUM, Strain/Indicator: TA1535, Metabolic Activation: RAT, LIVER, S-9, AROCLOR 1254, Method: STANDARD PLATE): inactive; negative
mutagenic call (Test System: AMES SALMONELLA TYPHIMURIUM, Strain/Indicator: TA1537, Metabolic Activation: NONE, Method: STANDARD PLATE): inactive; negative
mutagenic call (Test System: AMES SALMONELLA TYPHIMURIUM, Strain/Indicator: TA1537, Metabolic Activation: RAT, LIVER, S-9, AROCLOR 1254, Method: STANDARD PLATE): inactive; negative
mutagenic call (Test System: AMES SALMONELLA TYPHIMURIUM, Strain/Indicator: TA1538, Metabolic Activation: NONE, Method: STANDARD PLATE): inactive; negative
mutagenic call (Test System: AMES SALMONELLA TYPHIMURIUM, Strain/Indicator: TA1538, Metabolic Activation: RAT, LIVER, S-9, AROCLOR 1254, Method: STANDARD PLATE): inactive; negative
mutagenic call (Test System: MOUSE LYMPHOMA, Strain/Indicator: L5178Y (TK+/TK-), Metabolic Activation: NONE, Method: SUSPENSION/PLATE): active; positive
mutagenic call (Test System: MOUSE LYMPHOMA, Strain/Indicator: L5178Y (TK+/TK-), Metabolic Activation: RAT, LIVER, S-9, AROCLOR 1254, Method: STANDARD PLATE): active; positive

Cl/C=C(\Cl)COCCCl
mutagenic call (Test System: AMES SALMONELLA TYPHIMURIUM, Strain/Indicator: TA100, Metabolic Activation: RAT, LIVER, S-9, 3-METHYLCHOLANTHRENE, Method: STANDARD PLATE): inactive; negative
mutagenic call [5]: active; positive
mutagenic call [7]: active; positive
mutagenic call (Test System: AMES SALMONELLA TYPHIMURIUM, Strain/Indicator: TA100, Metabolic Activation: RAT, LIVER, S-9, Method: STANDARD PLATE): inactive; negative

COc1cc(N)ccc1NC(C)=O
mutagenic call [2]: inactive; negative
mutagenic call [3]: active; positive

CC(C)=CC1C(C(=O)OC(C#N)c2cccc(Oc3ccccc3)c2)C1(C)C (centres undefined)
mutagenic call (Test System: Ames Salmonella typhimurium, Strain/Indicator: TA98, Metabolic Activation: None, Method: Preincubation): inactive; negative
mutagenic call (Test System: Ames Salmonella typhimurium, Strain/Indicator: TA98, Metabolic Activation: Rat, liver, S-9, Method: Preincubation): inactive; negative
mutagenic call (Test System: Ames Salmonella typhimurium, Strain/Indicator: TA100, Metabolic Activation: None, Method: Preincubation): inactive; negative
mutagenic call (Test System: Ames Salmonella typhimurium, Strain/Indicator: TA100, Metabolic Activation: Rat, liver, S-9, Method: Preincubation): inactive; negative
mutagenic call (Test System: Ames Salmonella typhimurium, Strain/Indicator: TA1535, Metabolic Activation: None, Method: Preincubation): inactive; negative
mutagenic call (Test System: Ames Salmonella typhimurium, Strain/Indicator: TA1535, Metabolic Activation: Rat, liver, S-9, Method: Preincubation): inactive; negative
mutagenic call (Test System: Ames Salmonella typhimurium, Strain/Indicator: TA1537, Metabolic Activation: None, Method: Preincubation): inactive; negative
mutagenic call (Test System: Ames Salmonella typhimurium, Strain/Indicator: TA1537, Metabolic Activation: Rat, liver, S-9, Method: Preincubation): inactive; negative
mutagenic call (Test System: Ames Salmonella typhimurium, Strain/Indicator: TA1538, Metabolic Activation: None, Method: Preincubation): inactive; negative
mutagenic call (Test System: Ames Salmonella typhimurium, Strain/Indicator: TA1538, Metabolic Activation: Rat, liver, S-9, Method: Preincubation): inactive; negative
mutagenic call (Test System: E. coli, Strain/Indicator: WP-2 uvrA, Metabolic Activation: None, Method: Preincubation): inactive; negative
mutagenic call (Test System: E. coli, Strain/Indicator: WP-2 uvrA, Metabolic Activation: Rat, liver, S-9, Method: Preincubation): inactive; negative

COc1ccc2cc([C@H](C)C(=O)O)ccc2c1
mutagenic call [1]: inactive; negative
mutagenic call (Test System: AMES SALMONELLA TYPHIMURIUM, Strain/Indicator: TA97A, Metabolic Activation: RAT, LIVER, S-9, PHENOBARBITAL, Method: STANDARD PLATE): inactive; negative
mutagenic call (Test System: AMES SALMONELLA TYPHIMURIUM, Strain/Indicator: TA98, Metabolic Activation: GUINEA PIG, LIVER, S-9, PCB, Method: PREINCUBATION): inactive; negative
mutagenic call (Test System: AMES SALMONELLA TYPHIMURIUM, Strain/Indicator: TA98, Metabolic Activation: HAMSTER, LIVER, S-9, PCB, Method: PREINCUBATION): inactive; negative
mutagenic call (Test System: AMES SALMONELLA TYPHIMURIUM, Strain/Indicator: TA98, Metabolic Activation: MOUSE, LIVER, S-9, PCB, Method: PREINCUBATION): inactive; negative
mutagenic call (Test System: AMES SALMONELLA TYPHIMURIUM, Strain/Indicator: TA98, Metabolic Activation: NONE, Method: PREINCUBATION): inactive; negative
mutagenic call (Test System: AMES SALMONELLA TYPHIMURIUM, Strain/Indicator: TA98, Metabolic Activation: RAT, LIVER, S-9, PCB, Method: PREINCUBATION): inactive; negative
mutagenic call (Test System: AMES SALMONELLA TYPHIMURIUM, Strain/Indicator: TA98, Metabolic Activation: RAT, LIVER, S-9, PCB, Method: STANDARD PLATE): inactive; negative
mutagenic call (Test System: AMES SALMONELLA TYPHIMURIUM, Strain/Indicator: TA100, Metabolic Activation: GUINEA PIG, LIVER, S-9, PCB, Method: PREINCUBATION): inactive; negative
mutagenic call (Test System: AMES SALMONELLA TYPHIMURIUM, Strain/Indicator: TA100, Metabolic Activation: HAMSTER, LIVER, S-9, PCB, Method: PREINCUBATION): inactive; negative
mutagenic call (Test System: AMES SALMONELLA TYPHIMURIUM, Strain/Indicator: TA100, Metabolic Activation: MOUSE, LIVER, S-9, PCB, Method: PREINCUBATION): inactive; negative
mutagenic call (Test System: AMES SALMONELLA TYPHIMURIUM, Strain/Indicator: TA100, Metabolic Activation: NONE, Method: PREINCUBATION): inactive; negative
mutagenic call [4]: inactive; negative
mutagenic call (Test System: AMES SALMONELLA TYPHIMURIUM, Strain/Indicator: TA100, Metabolic Activation: RAT, LIVER, S-9, PCB, Method: PREINCUBATION): inactive; negative
mutagenic call (Test System: AMES SALMONELLA TYPHIMURIUM, Strain/Indicator: TA100, Metabolic Activation: RAT, LIVER, S-9, PCB, Method: STANDARD PLATE): inactive; negative
mutagenic call [7]: inactive; negative
mutagenic call [6]: inactive; negative
mutagenic call (Test System: AMES SALMONELLA TYPHIMURIUM, Strain/Indicator: TA102, Metabolic Activation: RAT, LIVER, S-9, PHENOBARBITAL, Method: STANDARD PLATE): inactive; negative
mutagenic call (Test System: AMES SALMONELLA TYPHIMURIUM, Strain/Indicator: TA1537, Metabolic Activation: RAT, LIVER, S-9, PCB, Method: STANDARD PLATE): inactive; negative
mutagenic call (Test System: AMES SALMONELLA TYPHIMURIUM, Strain/Indicator: TA1538, Metabolic Activation: RAT, LIVER, S-9, PCB, Method: STANDARD PLATE): inactive; negative
mutagenic call (Test System: E. COLI, Strain/Indicator: WP2 UVRA, Metabolic Activation: RAT, LIVER, S-9, PCB, Method: STANDARD PLATE): inactive; negative

c1ccc(COC[C@@H]2CO2)cc1
mutagenic call [4]: active; positive
